According to patent EP1363949B1, “FUNCTIONAL FRAGMENT OF THE LEPTINE RECEPTOR” (Vlaams Interuniversitair Instituut voor Biotechnologie vzw., priority 2000, dated 2007):

System: FLAG-tagged SOCS3
Assay: phosphopeptide affinity chromatography with anti-FLAG Western blot
Format: binding, rat
Details: lysates of HEK293T cells transfected with pMET7-fSOCS3, biotinylated peptides on streptavidin-agarose
Source text: Monoclonal anti-FLAG antibody M2 was obtained from Sigma. Mouse recombinant leptin was purchased from R&D Systems. Peptides were synthesized using standard Fmoc-amino-acid solid phase chemistry on an Applied Biosystems Model 431A peptide synthesizer. Biotin was esterified manually following similar procedures as on the synthesizer, and added to the reaction mixture. Incorporation of phosphotyrosine was realized by using a protected Fmoc-tyrosine-phosphobenzylester (Novabiochem). After purification, mass of the peptides was confirmed by mass spectrometry. Sequences of the peptides used were biotin-QRQPSVK(p)Y985ATLVSNDK and biotin-NHREKSVC(p)Y1077LGVTSVNR.
Approximately 10^6 HEK293T cells were lysed in 150 µl 2x loading buffer. After sonication, 30 µl was loaded on a 10% polyacrylamide gel. […] Blotting efficiency was checked using PonceauS staining (Sigma). […] Peptide concentrations were determined by a colorimetric assay using alkaline hydrolysis and a ninhydrine reagent. […]
The interaction sites of SOCS3 with the leptin receptor were confirmed using a biochemical approach. FLAG-tagged SOCS3 was expressed upon transient transfection of pMET7-fSOCS3 in HEK293T cells, and was analyzed for binding to (phospho)-tyrosine containing peptides matching the two motifs within the leptin receptor. […]

biotin-QRQPSVK(p)Y985ATLVSNDK [non-phosphorylated peptide]
binding of SOCS3: did not bind any SOCS3 protein
